Data: US9050326B2, “Amido derivatives-contained pharmaceutical composition” (priority 2008, dated 2015)
Converted amounts (≈) assume the structure as drawn.

Key:
[1] = Chemical stability against heat in manufacturing a solid dispersion with a twin screw extruder (melting method); format: physicochemical
From the text: Salts, a clathrate, a solid dispersion, and the like are known as methods of improving the solubility of a slightly water-soluble drug. However, with respect to compound A per se, it is expected that a salt of compound A is desalted, even if the solubility is improved, and that the inclusion ability of cyclodextrin, which is commonly used as a host of clathrates, is low.

[2] = Solubility, dissolution test of the 15th Edition of the Japanese Pharmacopoeia; format: physicochemical; settings: thermodynamic from solid, without storage, read-out: Solubility of compound A

With `Cc1cccc(C)c1N(CC(=O)Nc1ccc(-c2ncon2)cc1)C(=O)C1CCS(=O)(=O)CC1` [Compound A, N-(2,6-Dimethylphenyl)-N-(2-{[4-(1,2,4-oxadiazol-3-yl)phenyl]amino}-2-oxoethyl)tetrahydro-2H-thiopyran-4-carboxamide 1,1-dioxide] the “Chemical stability against heat” value [1] was “low chemical stability against heat” and the solubility [2] was 2 µg/mL (≈ 4.14 µM).
